How the values were obtained:
Assay in all cases: relative viability (nuclei count vs DMSO), 5 days (fraction); higher = more cells survive
AZ505 + AZD7762 = compound: C1CCC(CC1)N(CCNCCC2=C3C(=C(C=C2)O)NC(=O)CO3)C(=O)CCNCCC4=CC(=C(C=C4)Cl)Cl [AZ505] + NC(=O)Nc1cc(-c2cccc(F)c2)sc1C(=O)N[C@H]1CCCNC1 [AZD7762] (partner 0.2 µM)
Method in brief: (§1)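 Nuclei were stained with Hoechst during a one-step fixation (final 0.05% Triton X-100, 1% formaldehyde, 1 ug/ml Hoechst) carried out 5 days after dosing, then counted on 4× images. The cells, lung cancer lines in 1536-well plates, had been dosed by pin tool the day after seeding with one drug alone or a fixed anchor-drug dose plus five library-drug doses (not always all listed) in √10 steps. Relative viability is the nuclei count in treated wells divided by that in vehicle wells, and each value is the median of duplicate plates.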

Dactolisib + Phenformin = compound: Cn1c(=O)n(-c2ccc(C(C)(C)C#N)cc2)c2c3cc(-c4cnc5ccccc5c4)ccc3ncc21 [Dactolisib] + N=C(N)NC(=N)NCCc1ccccc1 [Phenformin] (partner 250 µM)
Method in brief: as §1

AZ505 + Pictilisib = compound: C1CCC(CC1)N(CCNCCC2=C3C(=C(C=C2)O)NC(=O)CO3)C(=O)CCNCCC4=CC(=C(C=C4)Cl)Cl [AZ505] + CS(=O)(=O)N1CCN(Cc2cc3nc(-c4cccc5[nH]ncc45)nc(N4CCOCC4)c3s2)CC1 [Pictilisib] (partner 1 µM)
Method in brief: as §1

AZ505 + Trametinib = compound: C1CCC(CC1)N(CCNCCC2=C3C(=C(C=C2)O)NC(=O)CO3)C(=O)CCNCCC4=CC(=C(C=C4)Cl)Cl [AZ505] + CC(=O)Nc1cccc(-n2c(=O)n(C3CC3)c(=O)c3c(Nc4ccc(I)cc4F)n(C)c(=O)c(C)c32)c1 [Trametinib] (partner 0.02 µM)
Method in brief: as §1

Cell Line	relative viability (AZ505 + AZD7762; first compound 0.08 µM)	relative viability (AZ505 + AZD7762; first compound 0.253 µM)	relative viability (AZ505 + AZD7762; first compound 0.8 µM)	relative viability (AZ505 + AZD7762; first compound 2.53 µM)	relative viability (AZ505 + AZD7762; first compound 8 µM)	relative viability (Dactolisib + Phenformin; first compound 0.002 µM)	relative viability (Dactolisib + Phenformin; first compound 0.006325 µM)	relative viability (Dactolisib + Phenformin; first compound 0.02 µM)	relative viability (Dactolisib + Phenformin; first compound 0.06325 µM)	relative viability (Dactolisib + Phenformin; first compound 0.2 µM)	relative viability (AZ505 + Pictilisib; first compound 0.08 µM)	relative viability (AZ505 + Pictilisib; first compound 0.253 µM)	relative viability (AZ505 + Pictilisib; first compound 0.8 µM)	relative viability (AZ505 + Pictilisib; first compound 2.53 µM)	relative viability (AZ505 + Pictilisib; first compound 8 µM)	relative viability (AZ505 + Trametinib; first compound 0.08 µM)	relative viability (AZ505 + Trametinib; first compound 0.253 µM)	relative viability (AZ505 + Trametinib; first compound 0.8 µM)	relative viability (AZ505 + Trametinib; first compound 2.53 µM)	relative viability (AZ505 + Trametinib; first compound 8 µM)
NCI-H1755	0.348	0.471	0.495	0.421	0.432	0.647	0.617	0.612	0.549	0.476	0.347	0.331	0.333	0.42	0.431	0.728	0.785	0.749	0.741	0.746
HCC-78	–	–	0.75	0.719	0.558	0.912	0.771	0.63	0.495	0.319	–	0.219	0.179	0.264	0.289	–	–	0.594	0.701	0.653
IA-LM	–	–	–	–	–	–	–	–	–	–	–	0.419	0.292	0.415	0.432	–	–	–	–	–
NCI-H322M	0.629	–	0.582	0.616	0.545	0.822	0.745	0.713	0.617	0.485	0.517	0.422	0.562	0.508	0.504	0.501	–	0.521	0.491	0.486
SK-LU-1	–	–	–	–	–	0.273	0.491	0.414	0.259	0.185	0.333	0.419	0.332	0.323	0.435	0.366	0.377	0.401	0.383	0.407
COR-L23	–	–	–	–	–	0.508	0.417	0.429	0.229	0.159	0.546	0.741	0.486	0.686	0.535	0.45	0.516	0.519	0.534	0.482
NCI-H2023	–	–	–	–	–	0.43	0.361	0.309	0.14	0.122	0.249	0.17	0.197	0.264	0.223	0.576	0.548	0.525	0.682	0.569
COR-L 105	–	–	–	–	–	0.494	0.489	0.432	0.256	0.259	0.368	0.391	0.375	0.355	0.497	0.403	0.452	0.446	0.428	0.476
NCI-H520	–	–	–	–	–	0.529	0.534	0.369	0.202	0.217	0.264	0.273	0.284	0.272	0.259	0.766	0.638	0.661	0.639	0.699
SW 1573	–	–	–	–	–	0.382	0.238	0.31	0.139	0.175	0.456	0.514	0.422	0.467	0.571	0.536	0.657	0.515	0.474	0.543
NCI-H2342	0.538	0.488	0.489	0.686	0.563	0.492	0.64	0.54	0.559	0.525	–	–	–	–	–	0.668	0.789	1.01	0.752	1.01
NCI-H1299	–	–	–	–	–	–	–	–	–	–	0.576	0.672	0.703	0.546	0.722	–	–	–	–	–
NCI-H1650	–	–	–	–	–	0.355	0.41	0.454	0.267	0.232	0.488	0.594	0.586	0.492	0.502	0.48	0.686	0.71	0.556	0.626
NCI-H2009	–	–	–	–	–	0.553	0.467	0.474	0.308	0.198	0.633	0.703	0.688	0.486	0.696	0.247	0.262	0.233	0.276	0.287
SW 900	0.576	0.295	0.611	0.569	0.75	0.67	0.536	0.591	0.288	0.198	–	–	–	–	–	0.554	0.846	0.682	0.72	0.813
SK-MES-1	–	–	–	–	–	0.667	0.662	0.627	0.388	0.212	0.377	0.394	0.388	0.38	0.411	0.513	0.531	0.532	0.508	0.584
NCI-H1648	–	0.755	0.921	0.818	0.825	–	–	–	–	–	–	–	–	–	–	–	0.463	0.528	0.576	0.497
NCI-H522	0.678	0.747	0.727	1.11	0.887	0.591	0.647	0.548	0.535	0.631	–	–	–	–	–	0.71	0.726	0.945	0.842	0.8
A549	–	–	–	–	–	0.183	0.153	0.172	0.103	0.0668	0.461	0.569	0.519	0.585	0.59	–	–	–	–	–
NCI-H661	–	–	–	–	–	0.254	0.278	0.292	0.216	0.265	–	0.357	0.392	0.563	0.45	0.603	0.596	0.537	0.577	0.541
NCI-H1563	–	–	–	–	–	0.674	0.622	0.626	0.61	0.54	0.612	0.62	0.695	0.595	0.609	–	–	–	–	–
ABC-1	0.637	0.537	0.918	0.825	0.859	0.246	0.244	0.24	0.231	0.199	0.711	0.618	0.759	0.662	0.57	–	–	–	–	–
